Test system: Myotonic Dystrophy 1 affected patient fibroblasts (Coriel GM04602; 1600 CTG repeats)
Assay: DM1 foci reduction assay (EC50 assay; CAG10-Cy3 FISH, foci per nucleus)
Type: cell-based
Details: Homo sapiens, Fibroblast; DM1 patient fibroblasts, 48 h treatment, foci per nucleus; read-out: DM1 EC50, 48 h
Experimental: DM1 Foci Reduction Assay Methods
Myotonic Dystrophy 1 affected patient fibroblasts (Coriel GM04602; 1600 CTG repeats) and wild type fibroblasts (Coriell GM07492; control line) were cultured separately in Gibco DMEM (1×)+4.5 g/L D-Glucose+L-Glutamine+[…] Sodium Pyruvate, supplemented with 10% FBS and 1× Pen/Strep. Cells were maintained in an incubator at 37° C. and 5% CO2 with media refreshed every 48-72 hours.
At 90-95% confluency, both cell lines were harvested using Trypl-E then pelleted at 500×g for 5 minutes and were resuspended in fresh media. DM1 fibroblasts were seeded in Agilent 96 well black plates at a density of 5,000 cells/well in 200 μL media; and 8 wells were reserved for control fibroblasts. Plates were returned to incubator for 24 hours at 37° C. and 5% CO2.
Compounds were diluted from 10 mM stock to 1 mM in DMSO and then diluted once more to 6 μM (2× concentration) in media. Media was removed from all plates and cells were replenished with 100 μL media. Cells were treated in 8-point dose response, 1:3 fold dilution, 3 μM top dose via addition of 100 μL of 6 μM (2× concentration) compound to the 100 μL media with cells. Plates were returned to incubator for 48 hours at 37° C. and 5% CO2.
Following treatment, compounds were removed, and plates were washed with PBS, then cells were fixed in 75 μL 4% PFA solution for 20 minutes at room temperature. Plates were washed twice with PBS and twice with cold 70% ethanol before permeabilization with 250 μL cold 70% ethanol for 24-72 hours at −20° C.
After permeabilization, plates were washed once with a 30% formamide and 2×SSC buffer and rehydrated in that buffer for 15 minutes at room temperature. Cells were incubated overnight at 37° C. in 75 μL of a hybridization solution containing 30% formamide, 2×SSC, 25 mg/mL dextran sulfate, 2.5 mg/mL BSA, 0.2 μg/mL Herring sperm DNA, 2 mM vanadyl-ribonucleoside complex, and 5 nM CAG10-Cy3 probe.
Plates were washed once with 30% formamide in 2×SSC buffer, then twice with the buffer for 30 minutes at 37° C., 300 RPM in an incubating plate shaker. Cells were stained with 75 μL of 2.5 μg/mL DAPI in PBS for 5 minutes at room temperature. Plates were then washed twice with PBS and stored in 250 μL PBS. Plates were sealed with adhesive foil and wiped down with 70% ethanol.
Cells were imaged on a Cytation5 with a 20× objective sampling from 4 areas of each well. Nuclei were captured under DAPI channel and foci under RFP channel. Plates were analyzed on an average foci per nucleus per well basis.

| Compound | EC50 [nM] |
| --- | --- |
| CCCNC(=O)c1cc(NC(=O)c2nc(NC(=O)CCNC(=O)c3cc(NC(=O)c4nc(NC(=O)[C@H](N)CCNC(=O)c5cc(NC(=O)c6nc(NC(=O)CCNC(=O)c7cc(NC(=O)c8nccn8C)cn7C)cn6C)cn5C)cn4C)cn3C)cn2C)cn1C [Compound B-6] | 500 to 1000 |
| CCCNC(=O)c1cc(NC(=O)c2nc(NC(=O)CCNC(=O)c3cc(NC(=O)c4nc(NC(=O)[C@@H](CCNC(=O)c5cc(NC(=O)c6nc(NC(=O)CCNC(=O)c7cc(NC(=O)c8nccn8C)cn7C)cn6C)cn5C)NC(C)=O)cn4C)cn3C)cn2C)cn1C [Compound B-7] | 500 to 1000 |
| Cn1cc(NC(=O)c2nc(NC(=O)CCNC(=O)c3cc(NC(=O)c4nccn4C)cn3C)cn2C)cc1C(=O)NCCCC(=O)Nc1cn(C)c(C(=O)NCCC(=O)Nc2cc(C(=O)Nc3cn(C)c(C(=O)NCCC(=O)NCCOCCOCCOCCOCCOc4ccc(NC(=O)OCc5ccccc5)cc4)n3)n(C)c2)n1 [Compound B-11] | > 1000 |
| Cn1cc(NC(=O)c2nc(NC(=O)CCNC(=O)c3cc(NC(=O)c4nccn4C)cn3C)cn2C)cc1C(=O)NCCCC(=O)Nc1cn(C)c(C(=O)NCCC(=O)Nc2cc(C(=O)Nc3cn(C)c(C(=O)NCCC(=O)NCCOCCOCCOc4ccc(NC(=O)OCc5ccccc5)cc4)n3)n(C)c2)n1 [Compound B-13] | > 1000 |
| Cn1cc(NC(=O)c2nc(NC(=O)CCNC(=O)c3cc(NC(=O)c4nccn4C)cn3C)cn2C)cc1C(=O)NCCCC(=O)Nc1cn(C)c(C(=O)NCCC(=O)Nc2cc(C(=O)Nc3cn(C)c(C(=O)NCCC(=O)N4CCC(N5CCN(CCOCCOCCOCCOCCN)CC5)CC4)n3)n(C)c2)n1 [Compound B-24] | > 1000 |
| Cn1cc(NC(=O)c2nc(NC(=O)CCNC(=O)c3cc(NC(=O)c4nccn4C)cn3C)cn2C)cc1C(=O)NCCCC(=O)Nc1cn(C)c(C(=O)NCCC(=O)Nc2cc(C(=O)Nc3cn(C)c(C(=O)NCCC(=O)NCCOCCN4CCN(C5CCN(c6ccc([N+](=O)[O-])cc6)CC5)CC4)n3)n(C)c2)n1 [Compound B-26] | > 1000 |
| Cn1cc(NC(=O)c2nc(NC(=O)CCNC(=O)c3cc(NC(=O)c4nccn4C)cn3C)cn2C)cc1C(=O)NCCCC(=O)Nc1cn(C)c(C(=O)NCCC(=O)Nc2cc(C(=O)Nc3cn(C)c(C(=O)NCCC(=O)N4CCN(C5CCN(c6ccc([N+](=O)[O-])cc6)CC5)CC4)n3)n(C)c2)n1 [Compound B-29, 1-Methyl-4-{1-methyl-4-[3-({1-methyl-4-[4-({1-methyl-4-[1-methyl-4-(3-{[1-methyl-4-(1-methylimidazole-2-amido)pyrrol-2-yl]formamido}propanamido)imidazole-2-amido]pyrrol-2-yl}formamido)butanamido]imidazol-2-yl}formamido)propanamido]pyrrole-2-amido}-N-(3-{4-[1-(4-nitrophenyl)piperidin-4-yl]piperazin-1-yl}-3-oxopropyl)imidazole-2-carboxamide] | > 1000 |
| Cn1cc(NC(=O)c2nc(NC(=O)CCNC(=O)c3cc(NC(=O)c4nccn4C)cn3C)cn2C)cc1C(=O)NCCCC(=O)Nc1cn(C)c(C(=O)NCCC(=O)Nc2cc(C(=O)Nc3cn(C)c(C(=O)NCCC(=O)NCCCN=C(N)N)n3)n(C)c2)n1 [Compound B-34] | 500 to 1000 |
| CCCCCCCCCCNC(=O)CCNC(=O)c1nc(NC(=O)c2cc(NC(=O)CCNC(=O)c3nc(NC(=O)CCCNC(=O)c4cc(NC(=O)c5nc(NC(=O)CCNC(=O)c6cc(NC(=O)c7nccn7C)cn6C)cn5C)cn4C)cn3C)cn2C)cn1C [Compound B-40] | < 100 |
| CN(C)CCCCCNC(=O)CCNC(=O)c1nc(NC(=O)c2cc(NC(=O)CCNC(=O)c3nc(NC(=O)CCCNC(=O)c4cc(NC(=O)c5nc(NC(=O)CCNC(=O)c6cc(NC(=O)c7nccn7C)cn6C)cn5C)cn4C)cn3C)cn2C)cn1C [Compound B-41] | 100 to 500 |
| Cn1cc(NC(=O)c2nc(NC(=O)CCNC(=O)c3cc(NC(=O)c4nccn4C)cn3C)cn2C)cc1C(=O)NCCCC(=O)Nc1cn(C)c(C(=O)NCCC(=O)Nc2cc(C(=O)Nc3cn(C)c(C(=O)NCCC(=O)NCCO)n3)n(C)c2)n1 [Compound B-51] | 100 to 500 |
| Cn1cc(NC(=O)c2nc(NC(=O)CCNC(=O)c3cc(NC(=O)c4nccn4C)cn3C)cn2C)cc1C(=O)NCCCC(=O)Nc1cn(C)c(C(=O)NCCC(=O)Nc2cc(C(=O)Nc3cn(C)c(C(=O)NCCC(=O)NC4CCCCC4)n3)n(C)c2)n1 [Compound B-53] | 100 to 500 |
| Cn1cc(NC(=O)c2nc(NC(=O)CCNC(=O)c3cc(NC(=O)c4nccn4C)cn3C)cn2C)cc1C(=O)NCCCC(=O)Nc1cn(C)c(C(=O)NCCC(=O)Nc2cc(C(=O)Nc3cn(C)c(C(=O)NCCC(=O)N[C@H]4CC[C@H](O)CC4)n3)n(C)c2)n1 [Compound B-54] | 100 to 500 |
| CN1CCC(NC(=O)CCNC(=O)c2nc(NC(=O)c3cc(NC(=O)CCNC(=O)c4nc(NC(=O)CCCNC(=O)c5cc(NC(=O)c6nc(NC(=O)CCNC(=O)c7cc(NC(=O)c8nccn8C)cn7C)cn6C)cn5C)cn4C)cn3C)cn2C)CC1 [Compound B-55] | 100 to 500 |
| CCCNC(=O)CCNC(=O)c1nc(NC(=O)c2cc(NC(=O)CCNC(=O)c3nc(NC(=O)CCCNC(=O)c4cc(NC(=O)c5nc(NC(=O)CCNC(=O)c6cc(NC(=O)c7nccn7C)cn6C)cn5C)cn4C)cn3C)cn2CCCCCCN=[N+]=[N-])cn1C [Compound B-56] | 100 to 500 |
| CCCNC(=O)CCNC(=O)c1nc(NC(=O)c2cc(NC(=O)CCNC(=O)c3nc(NC(=O)CCCNC(=O)c4cc(NC(=O)c5nc(NC(=O)CCNC(=O)c6cc(NC(=O)c7nccn7C)cn6CCCCCCN=[N+]=[N-])cn5C)cn4C)cn3C)cn2C)cn1C [Compound B-60] | 100 to 500 |
| CCCNC(=O)CCNC(=O)c1nc(NC(=O)c2cc(NC(=O)CCNC(=O)c3nc(NC(=O)CCCNC(=O)c4cc(NC(=O)c5nc(NC(=O)CCNC(=O)c6cc(NC(=O)c7nccn7C)cn6CCCCCCN)cn5C)cn4C)cn3C)cn2C)cn1C [Compound B-61] | > 1000 |
| CCCNC(=O)CCNC(=O)c1nc(NC(=O)c2cc(NC(=O)CCNC(=O)c3nc(NC(=O)CCCNC(=O)c4cc(NC(=O)c5nc(NC(=O)CCNC(=O)c6cc(NC(=O)c7nccn7C)c[nH]6)cn5C)c[nH]4)cn3C)c[nH]2)cn1C [Compound B-62] | > 1000 |
| CCCNC(=O)c1cc(NC(=O)c2cc(NC(=O)c3nc(NC(=O)c4nc(NC(=O)[C@@H](N)CCNC(=O)c5nc(NC(=O)CCNC(=O)c6cc(NC(=O)c7nccn7C)cn6C)cn5C)cn4C)cn3C)cn2C)cn1C [Compound B-64] | > 1000 |
| CCOC(=O)CCNC(=O)c1nc(NC(=O)c2cc(NC(=O)CCNC(=O)c3nc(NC(=O)CCCNC(=O)c4cc(NC(=O)c5nc(NC(=O)CCNC(=O)c6cc(NC(=O)c7nccn7C)cn6C)cn5C)cn4C)cn3C)cn2C)cn1C [Compound B-65] | 100 to 500 |
| CCCNC(=O)c1cc(NC(=O)c2nc(NC(=O)CCCNC(=O)c3cc(NC(=O)c4nc(NC(=O)CCNC(=O)c5cc(NC(=O)c6nccn6C)cn5C)cn4C)cn3C)cn2C)cn1C [Compound B-67] | > 1000 |
| Cn1cc(NC(=O)c2nc(NC(=O)CCNC(=O)c3cc(NC(=O)c4nccn4C)cn3C)cn2C)cc1C(=O)NCCCC(=O)Nc1cn(C)c(C(=O)NCCC(=O)Nc2cc(C(=O)Nc3cn(C)c(C(=O)NCCC(=O)N4CC(c5cnc(CN(CCCCO)CCCCO)[nH]5)C4)n3)n(C)c2)n1 [Compound B-70] | 100 to 500 |
| COCCOCCOCCOCCOCCOCCOCCOCCN(CCOCCOCCOCCOCCOCCOCCOCCOC)C(=O)CCNC(=O)c1nc(NC(=O)c2cc(NC(=O)CCNC(=O)c3nc(NC(=O)CCCNC(=O)c4cc(NC(=O)c5nc(NC(=O)CCNC(=O)c6cc(NC(C)c7nccn7C)cn6C)cn5C)cn4C)cn3C)cn2C)cn1C (centres unmarked) [Compound B-80] | > 1000 |
| CCCNC(=O)CCNC(=O)c1nc(NC(=O)c2cc(NC(=O)CCNC(=O)c3nc(NC(=O)CCCNC(=O)c4cc(NC(=O)c5nc(NC(=O)c6cc(NC(=O)CCNC(=O)c7nccn7C)cn6C)cn5C)cn4C)cn3C)cn2C)cn1C [Compound B-83] | > 1000 |
| Cn1cc(NC(=O)c2nc(NC(=O)c3cc(NC(=O)CCNC(=O)c4nccn4C)cn3C)cn2C)cc1C(=O)NCCCC(=O)Nc1cn(C)c(C(=O)NCCC(=O)Nc2cc(C(=O)Nc3cn(C)c(C(=O)NCCC(=O)NCCCCN=[N+]=[N-])n3)n(C)c2)n1 [Compound B-84] | > 1000 |
| CCN(CC)CCCC[C@H](NC(C)=O)C(=O)NCCOCCOCCOCCNC(=O)CCNC(=O)c1nc(NC(=O)c2cc(NC(=O)CCNC(=O)c3nc(NC(=O)CCCNC(=O)c4cc(NC(=O)c5nc(NC(=O)CCNC(=O)c6cc(NC(=O)c7nccn7C)cn6C)cn5C)cn4C)cn3C)cn2C)cn1C [Compound B-86] | > 1000 |
